Measured values: patent US7001983B1, “Antipathogenic synthetic peptides and compositions comprising them” (priority 1997, dated 2006)
Square brackets hold non-standard residues; d marks the D form. Peptide text beside a SMILES is read from it.

Experiments:
[1] = system: Acinetobacter calcoaceticus Ac11; format: cell-based; conditions: 100% inhibition of growth after 18–20 h
[2] = system: human red blood cells (hRBC); assay: Hemolysis of human red blood cells; format: cell-based; conditions: for % hemolysis at 50 μM peptide / % hemolysis at 100 μM: hRBC, 30 min at 37° C.
Protocol: (ix) Hemolysis of human red blood cells. The peptides were tested for their hemolytic activities against human red blood cells (hRBC). Fresh hRBC with EDTA were rinsed 3 times with PBS (35 mM phosphate buffer/0.15 M NaCl, pH 7.3) by centrifugation for 10 min at 800 g and resuspended in PBS. Peptides dissolved in PBS were then added to 50 μL of a solution of the stock hRBC in PBS to reach a final volume of 100 μL (final erythrocyte concentration, 5% v/v). The resulting suspension was incubated under agitation for 30 min at 37° C. The samples were then centrifuged at 800 g for 10 min. Release of hemoglobin was monitored by measuring the absorbance of the supernatant at 540 nm. Controls for zero hemolysis (blank) and 100% hemolysis consisted of hRBC suspended in PBS and Triton 1%, respectively.

Bacillus megaterium Bm11 = format: cell-based; conditions: 100% inhibition of growth after 18–20 h
Escherichia coli D21 = format: cell-based; conditions: 100% inhibition of growth after 18–20 h
[3] = system: Micrococcus Iuteus ATCC 9341; assay: Antibacterial activity (MIC), growth inhibition in LB medium; format: cell-based, Micrococcus luteus; conditions: 100% inhibition of growth after 18–20 h
Protocol: (viii) Antibacterial activity of the peptides. The antibacterial activity of the diastereomers was examined in sterile 96-well plates (Nunc F96 microtiter plates) in a final volume of 100 μL as follows: Aliquots (50 μl) of a suspension containing bacteria at a concentration of 10^6 Colony-Forming Units (CFU)/ml LB (Lauria broth) medium were added to 50 μL of water or 66% pooled normal human serum in PBS, containing the peptide in 2-fold serial dilutions. Growth inhibition was determined by measuring the absorbance at 492 nm with a Microplate autoreader E1309 (Bio-tek Instruments), following incubation for 18–20 h at 37° C. […] The bacteria used were: Escherichia coli D21, Pseudomonas aeruginosa ATCC 27853, Acinetobacter calcoaceticus Ac11, Salmonella typhimurium LT2, Bacillus megaterium Bm11, Micrococcus Iuteus ATCC 9341, Bacillus subtilis ATCC 6051.

[4] = system: Pseudomonas aeruginosa ATCC 27853; conditions: 100% inhibition of growth after 18–20 h
Protocol: (viii) Antibacterial activity of the peptides.
Antibacterial activity of the mixtures was determined as described in Experimental procedures, section (xii).

[5] = system: Bacillus subtilis ATCC 6051; format: cell-based; conditions: 100% inhibition of growth after 18–20 h

Row | Compound | Minimal Inhibitory Concentration A. calcoaceticus (Ac11) [1] | % hemolysis at 50 μM peptide [2] | Minimal Inhibitory Concentration B. megaterium (Bm11) (Bacillus megaterium Bm11) | Minimal Inhibitory Concentration E. coli (D21) (Escherichia coli D21) | Minimal Inhibitory Concentration M. luteus (ATCC 9341) [3] | Minimal Inhibitory Concentration P. aeruginosa (ATCC 27853) [4] | Minimal Inhibitory Concentration B. subtilis (ATCC 6051) [5] | hemolytic activity in comparison to melittin (fold less) ([2]; hRBC dose response) | % hemolysis at 100 μM [2]
1 | CC[C@H](C)[C@H](NC(=O)[C@H](CCCCN)NC(=O)[C@H]1CCCN1C(=O)[C@@H](NC(=O)[C@H](CC(C)C)NC(=O)[C@H](C)NC(=O)[C@H](Cc1ccccc1)NC(=O)[C@H](Cc1ccccc1)NC(=O)CN)[C@@H](C)CC)C(=O)N[C@H](C(=O)N[C@@H](CO)C(=O)N[C@@H](CO)C(=O)N1CCC[C@H]1C(=O)N[C@@H](CC(C)C)C(=O)N[C@@H](Cc1ccccc1)C(=O)N[C@@H](CCCCN)C(=O)N[C@H](C(=O)N[C@H](CC(C)C)C(=O)N[C@H](CC(C)C)C(=O)N[C@@H](CO)C(=O)N[C@@H](C)C(=O)N[C@H](C(=O)NCCN)C(C)C)[C@@H](C)O)[C@@H](C)CC [Peptide 2, [D]P^7L^18L^19[1-22]-TApar] | 12.5 µM | 0% | 2.5 µM | 12.5 µM | – | – | – | – | –
2 | CC[C@H](C)[C@H](NC(=O)[C@H](CCCCN)NC(=O)[C@H]1CCCN1C(=O)[C@@H](NC(=O)[C@H](CC(C)C)NC(=O)[C@H](C)NC(=O)[C@H](Cc1ccccc1)NC(=O)[C@H](Cc1ccccc1)NC(=O)CNC(=O)[C@@H](N)CCCCN)[C@@H](C)CC)C(=O)N[C@H](C(=O)N[C@@H](CO)C(=O)N[C@@H](CO)C(=O)N1CCC[C@H]1C(=O)N[C@@H](CC(C)C)C(=O)N[C@@H](Cc1ccccc1)C(=O)N[C@@H](CCCCN)C(=O)N[C@H](C(=O)N[C@H](CC(C)C)C(=O)N[C@H](CC(C)C)C(=O)N[C@@H](CO)C(=O)N[C@@H](C)C(=O)N[C@H](C(=O)NCCN)C(C)C)[C@@H](C)O)[C@@H](C)CC [Peptide 4, K^1[D]P^7L^18L^19[1-22]-TApar] | 7.5 µM | 0% | 1.5 µM | 7.5 µM | – | – | – | – | –
3 | CC[C@H](C)[C@H](NC(=O)[C@H](CCCCN)NC(=O)[C@H]1CCCN1C(=O)[C@@H](NC(=O)[C@H](CC(C)C)NC(=O)[C@H](C)NC(=O)[C@H](Cc1ccccc1)NC(=O)[C@H](Cc1ccccc1)NC(=O)CNC(=O)[C@H](CCCCN)NC(=O)[C@@H](N)CCCCN)[C@@H](C)CC)C(=O)N[C@H](C(=O)N[C@@H](CO)C(=O)N[C@@H](CO)C(=O)N1CCC[C@H]1C(=O)N[C@@H](CC(C)C)C(=O)N[C@@H](Cc1ccccc1)C(=O)N[C@@H](CCCCN)C(=O)N[C@H](C(=O)N[C@H](CC(C)C)C(=O)N[C@H](CC(C)C)C(=O)N[C@@H](CO)C(=O)N[C@@H](C)C(=O)N[C@H](C(=O)NCCN)C(C)C)[C@@H](C)O)[C@@H](C)CC [Peptide 5, K^1K^2[D]P^7L^18L^19[1-22]-TApar] | 3.5 µM | 0% | 0.75 µM | 3.5 µM | – | – | – | – | –
4 | CC[C@@H](C)[C@@H](NC(=O)[C@H](CC(C)C)NC(=O)[C@H](C)NC(=O)[C@@H]1CCCN1C(=O)[C@H](CC(C)C)NC(=O)CNC(=O)[C@@H](NC(=O)[C@@H](NC(=O)[C@H](CC(C)C)NC(=O)[C@H](NC(=O)[C@H](CCCCN)NC(=O)[C@H](CC(C)C)NC(=O)[C@H](NC(=O)[C@H](C)N)C(C)C)C(C)C)[C@@H](C)O)[C@@H](C)O)C(=O)N[C@@H](CO)C(=O)N[C@@H](Cc1c[nH]c2ccccc12)C(=O)N[C@H](C(=O)N[C@H](CCCCN)C(=O)N[C@@H](CCCNC(=N)N)C(=O)NCCN)[C@@H](C)CC [Peptide 21, [D]-V^5V^8I^17K^21-[4-22]-TAmel] | 14 µM | 0% | 1.2 µM | 21 µM | 28 µM | – | – | – | –
5 | CC(C)C[C@H](NC(=O)[C@H](CC(C)C)NC(=O)[C@@H](CC(C)C)NC(=O)[C@@H](CC(C)C)NC(=O)[C@H](CC(C)C)NC(=O)[C@@H](N)CCCCN)C(=O)N[C@@H](CCCCN)C(=O)N[C@H](CC(C)C)C(=O)N[C@@H](CC(C)C)C(=O)N[C@H](CC(C)C)C(=O)N[C@@H](CC(C)C)C(=O)N[C@@H](CCCCN)C(N)=O [Peptide 22, [D]-L^3,4,8,10-K3L9] (H-KL[dL][dL]LLK[dL]L[dL]LK-NH2) | 20 µM | – | 0.7 µM | 9 µM | – | 125 µM | 1.1 µM | > 60 fold | 58%
6 | CC[C@H](C)[C@@H]1NC(=O)[C@H](CCCCN)NC(=O)[C@H]2CCCN2C(=O)[C@H]([C@@H](C)CC)NC(=O)[C@H](CC(C)C)NC(=O)[C@H](C)NC(=O)[C@H](Cc2ccccc2)NC(=O)[C@H](Cc2ccccc2)NC(=O)CNC(=O)[C@H](CCCCN)NC(=O)[C@@H](N)CSSC[C@@H](C(=O)O)NC(=O)[C@H](C(C)C)NC(=O)[C@H](C)NC(=O)[C@H](CO)NC(=O)[C@@H](CC(C)C)NC(=O)[C@@H](CC(C)C)NC(=O)[C@H]([C@@H](C)O)NC(=O)[C@H](CCCCN)NC(=O)[C@H](Cc2ccccc2)NC(=O)[C@H](CC(C)C)NC(=O)[C@@H]2CCCN2C(=O)[C@H](CO)NC(=O)[C@H](CO)NC(=O)[C@H]([C@@H](C)CC)NC1=O [Peptide 86, Cyclic K^1[D]P^7L^18L^19[1-22]-par] | – | – | 10 µM | 30 µM | – | – | – | – | 0%
7 | CC[C@H](C)[C@@H]1NC(=O)[C@H](CCCCN)NC(=O)[C@H]2CCCN2C(=O)[C@H]([C@@H](C)CC)NC(=O)[C@H](CC(C)C)NC(=O)[C@H](C)NC(=O)[C@H](Cc2ccccc2)NC(=O)[C@H](Cc2ccccc2)NC(=O)CNC(=O)[C@H](CCCCN)NC(=O)[C@H](CCCCN)NC(=O)[C@@H](N)CSSC[C@@H](C(=O)O)NC(=O)[C@H](C(C)C)NC(=O)[C@H](C)NC(=O)[C@H](CO)NC(=O)[C@@H](CC(C)C)NC(=O)[C@@H](CC(C)C)NC(=O)[C@H]([C@@H](C)O)NC(=O)[C@H](CCCCN)NC(=O)[C@H](Cc2ccccc2)NC(=O)[C@H](CC(C)C)NC(=O)[C@@H]2CCCN2C(=O)[C@H](CO)NC(=O)[C@H](CO)NC(=O)[C@H]([C@@H](C)CC)NC1=O [Peptide 87, Cyclic K^1K^2[D]P^7L^18L^19[1-22]-par] | – | – | 6 µM | 15 µM | – | – | – | – | 0%
8 | CC[C@H](C)[C@@H]1NC(=O)[C@H](CCCCN)NC(=O)[C@H]2CCCN2C(=O)[C@H]([C@@H](C)CC)NC(=O)[C@H](CC(C)C)NC(=O)[C@H](C)NC(=O)[C@H](Cc2ccccc2)NC(=O)[C@H](Cc2ccccc2)NC(=O)CNC(=O)[C@H](CCCCN)NC(=O)[C@H](CCCCN)NC(=O)[C@H](CCCCN)NC(=O)[C@@H](N)CSSC[C@@H](C(=O)O)NC(=O)[C@H](C(C)C)NC(=O)[C@H](C)NC(=O)[C@H](CO)NC(=O)[C@@H](CC(C)C)NC(=O)[C@@H](CC(C)C)NC(=O)[C@H]([C@@H](C)O)NC(=O)[C@H](CCCCN)NC(=O)[C@H](Cc2ccccc2)NC(=O)[C@H](CC(C)C)NC(=O)[C@@H]2CCCN2C(=O)[C@H](CO)NC(=O)[C@H](CO)NC(=O)[C@H]([C@@H](C)CC)NC1=O [Peptide 88, Cyclic K^1K^2K^3[D]P^7L^18L^19[1-22]-par] | – | – | 2 µM | 7.5 µM | – | – | – | – | 0%
